The text below walks through data of patent US20180360856A1, “ANTI-BACTERIAL COMPOUNDS” (Auspherix Limited, priority 2015, published 2018).

Some results are limits rather than exact numbers.

The test system of data set [1] is Gram negative bacteria. To be noted: cited from earlier work.
Data set [2] deals with human hepatocyte cell line (HepG2). To be noted: 24 h.
Experimental: Cell counting kit-8 (Sigma, CCK-8) assays were performed to assess the effect of compounds on cell viability. The assay is based on the reduction of a water-soluble tetrazolium salt (WST-8) by cellular dehydrogenases to a formazan dye which can be detected spectroscopically. 96-well plates were seeded with the human hepatocyte cell line (HepG2) at approximately 8×10^3 cells per well in Eagle's Minimum Essential Medium (EMEM) with Earle's salts and sodium bicarbonate supplemented with 10% heat-inactivated foetal bovine serum 2 mM glutamine and 1% non-essential amino acids (NEAA). The following day serial dilutions of compounds (dissolved and diluted in DMSO) were added to the cells in duplicates. Control wells included an ‘untreated’ control where cells were grown in the presence of 1% DMSO and a ‘medium only’ control (plus 1% DMSO). After 24 hours CCK-8 reagent (10 μl) was added to each well and cell viability was assessed by measuring the absorbance at a wavelength of 450 nm after 2-3h hours. Only living cells can reduce the tetrazolium salts into coloured formazan products. Results were expressed as 50% growth inhibition (TD50) values compared to ‘untreated’ control.
The subject of data set [3] is S. aureus (Oxford strain). Kind of data set: Growth assay for S. aureus (MIC). In kind it is cell-based. To be noted: TSB, 37° C., 22-24 hours. The method, then: (§1) Stock solution of the test compounds (20 mg/ml) in dimethyl sulfoxide (DMSO) were serially diluted in DMSO and each diluted compound added in duplicate to a 96-well plate to a final DMSO concentration of 2% (v/v). An overnight culture of S. aureus (Oxford strain) grown in tryptic soy broth (TSB) was diluted to approximately 5×10^7 cfu/ml and 150 μl of this sample was added to each well of the 96-well plates. Control wells included an ‘untreated’ control with bacteria in TSB in the presence of 2% DMSO and a negative sample (containing 150p1 TSB growth media in the presence of 2% DMSO). Plates were incubated in a shaking incubator at 37° C. for 22-24 hours and bacterial growth assessed by absorbance at a wavelength of 595 nm. The minimum inhibitory concentration (MIC) was defined as the lowest concentration of compound that inhibited growth compared to the no-treatment control.

Data set [4] deals with E.coli (ATCC 25922). Put plainly: Growth assay variation, E. coli (MIC). In kind it is cell-based. Particulars: ATCC 25922, Luria broth, incubation without shaking. The procedure:
as §1
(§2) Klebsiella pneumoniae, Acinetobacter baumannnii or E.coli (ATCC 25922): use of 1/100 overnight dilution to set up assay, medium used: Luria broth (LB); incubation without shaking.

In data set [5] the test system is P.aeruginosa (ATCC 27853). Kind of data set: Growth assay variation, P. aeruginosa (MIC). The data set is classed as cell-based. To be noted: ATCC 27853, CaMHB, incubation without shaking. The procedure:
as §1
P.aeruginosa (ATCC 27853): use of 1/100 overnight dilution to set up assay, medium used: Cation adjusted Mueller Hinton broth (CaMHB); incubation without shaking.

Data set [6] relates to Klebsiella pneumoniae. Put plainly: Growth assay variation, Klebsiella pneumoniae (MIC). The data set is classed as cell-based. Particulars: Luria broth, incubation without shaking. The method, then:
as §1, §2

Take `CC[P](CC)(CC)=[Au][S][C@@H]1O[C@H](COC(C)=O)[C@@H](OC(C)=O)[C@H](OC(C)=O)[C@H]1OC(C)=O` [Auranofin]: the “activity against the majority of Gram negative bacteria” value in data set [1] is reported as “not been shown to have any significant activity”. For `Cc1nnc([S][Au]=[P](C)(C)C)n1C` [Compound 1], the “HepG2 cell TD50” value in data set [2] was 2 µg/mL.

With `CNC(=O)C[S][Au]=[P](C)(C)C` [Compound 2], the “HepG2 cell TD50” value in data set [2] was 6 µg/mL. For `CCOC(=O)CNC(=O)[C@H](C[S][Au]=[P](C)(C)C)NC(=O)CC[C@H](NC(C)=O)C(=O)OCC` [Compound 3], the “HepG2 cell TD50” value in data set [2] was 32 µg/mL. As to `C[P](C)(C)=[Au][S]c1ncco1` [Compound 4], the “HepG2 cell TD50” value in data set [2] was found to be 4 µg/mL.

Turning to `COc1ccc([S][Au]=[P](C)(C)C)cc1OC` [Compound 5], in data set [2], the “HepG2 cell TD50” value was 3 µg/mL. For the compound `C[P](C)(C)=[Au][S]c1ccccc1C(=O)O` [Compound 6], the “HepG2 cell TD50” value in data set [2] stood at 11.5 µg/mL. The same measure, in the same setting: then `C[P](C)(C)=[Au][S]c1ncc[nH]1` [Compound 7], with 6 µg/mL; and `C[P](C)(C)=[Au][S]c1cccc(C(F)(F)F)c1` [Compound 8], with 3 µg/mL. `C[P](C)(C)=[Au][S]c1ccccc1C(F)(F)F` [Compound 9]: the “HepG2 cell TD50” value in data set [2] came to 3 µg/mL. Still for that read-out and setting: in the case of `COc1cccc([S][Au]=[P](C)(C)C)c1` [Compound 10] it was 2 µg/mL; in that of `C[P](C)(C)=[Au][S]c1ccc(S(C)(=O)=O)cc1` [Compound 11], 2 µg/mL. On the same count and under the same terms, then `CC[P](C)(C)=[Au][S]c1ncco1` [Compound 12], with 5 µg/mL; and `C[P](C)(C)=[Au][S]c1ccc(C(F)(F)F)cn1` [Compound 13], with 2.5 µg/mL; and `C[P](C)(C)=[Au][S]c1cc(C(F)(F)F)ccn1` [Compound 14], with 3 µg/mL. Turning to `C[P](C)(C)=[Au][S]c1nnn[nH]1` [Compound 15], the “HepG2 cell TD50” value in data set [2] was 23 µg/mL. As to `C[P](C)(C)=[Au][S]c1ccc(C(N)=O)cn1` [Compound 16], in data set [2], the “HepG2 cell TD50” value is 17 µg/mL. On to `COc1ccc([S][Au]=[P](C)(C)C)cc1` [Compound 17], for which, in data set [2], the “HepG2 cell TD50” value was determined as 3.5 µg/mL. In the case of `C[P](C)(C)=[Au][S]c1ccc(F)cc1C(=O)O` [Compound 18], in data set [2], the “HepG2 cell TD50” value was found to be 18 µg/mL. Still for that read-out and setting: in the case of `CC(=O)Oc1ccc([S][Au]=[P](C)(C)C)cc1OC(C)=O` [Compound 23] it was 2 µg/mL.

On to `C[P](C)(C)=[Au][S]c1cccc(C(=O)O)c1` [Compound 25], for which, in data set [2], the “HepG2 cell TD50” value stood at 22 µg/mL.

With `C[P](C)(C)=[Au][S]c1ccc(C(=O)O)cc1` [Compound 26], the “HepG2 cell TD50” value in data set [2] was determined as 13 µg/mL. Still for that read-out and setting: in the case of `C[P]1(=[Au][S]c2ccccc2C(=O)O)CCCCC1` [Compound 27] it was 22 µg/mL; in that of `C[P]1(=[Au][S]c2ccccc2C(=O)O)CCCC1` [Compound 28], 11 µg/mL; in that of `C[P]1(=[Au][S]c2ccccc2C(=O)O)CCOCC1` [Compound 29], 35 µg/mL. Regarding `C[P]1(=[Au][S]c2ccc(F)cc2C(=O)O)CCCCC1` [Compound 30], in data set [2], the “HepG2 cell TD50” value is 19 µg/mL. Same read-out and setting: in the case of `C[P]1(=[Au][S]c2nnn[nH]2)CCCCC1` [Compound 31] it was 45 µg/mL; in that of `C[P]1(=[Au][S]c2nnn[nH]2)CCCC1` [Compound 32], 11 µg/mL. Regarding `Cn1nnnc1C[S][Au]=[P](C)(C)C` [Compound 33], the “HepG2 cell TD50” value in data set [2] is 4 µg/mL. For the compound `C[P](C)(C)=[Au][S]c1cccc(S(C)(=O)=O)c1` [Compound 34], the “HepG2 cell TD50” value in data set [2] amounted to 1 µg/mL. Turning to `C[P](C)(C)=[Au][S]C1CCC(F)(F)CC1` [Compound 35], the “HepG2 cell TD50” value in data set [2] is 4 µg/mL.

Turning to `CC[P](C)(C)=[Au][S]c1ccccc1C(=O)O` [Compound 36], the “S. aureus MIC” value in data set [3] was <0/8. As for `CP1CCS(=O)(=O)CC1.[Cl][Au]` [Compound I-44, 4-Methyl-[1,4]sulfonylphosphinane gold(I) chloride], the “S. aureus MIC” value in data set [3] is 6.3 to 25 µg/mL. Also, the “E. coli MIC” value in data set [4] was in the range of 25 to 100 µg/mL. For the same compound, the “P. aeruginosa MIC” value in data set [5] lay in the range of 6.3 to 50 µg/mL. For the same compound, the “K. pneumoniae MIC” value in data set [6] lay within 50 to 100 µg/mL.

For “Dimethyl[2-(methyl)oxazole]phosphine gold(I) chloride [Compound I-50]”, the “S. aureus MIC” value in data set [3] was 1.6 to 3.1 µg/mL. In data set [4], the “E. coli MIC” value fell in the range of 6.3 to 12.5 µg/mL. In addition, in data set [5], the “P. aeruginosa MIC” value fell in the range of 12.5 to 25 µg/mL. The “K. pneumoniae MIC” value in data set [6] lay in the range of 12.5 to 25 µg/mL. As to “Dimethyl[2-(methyl)thiazole]phosphine gold(I) chloride [Compound I-49]”, the “S. aureus MIC” value in data set [3] is ≤0.8 to 1.6 µg/mL. Further, in data set [4], the “E. coli MIC” value fell in the range of 6.3 to 12.5 µg/mL. The “P. aeruginosa MIC” value in data set [5] amounted to 25 µg/mL. Also, in data set [6], the “K. pneumoniae MIC” value was in the range of 12.5 to 25 µg/mL.
